Test results as given in patent US20090325920A1, “METHODS FOR THE TREATMENT OF A TRAUMATIC CENTRAL NERVOUS SYSTEM INJURY” (priority 2005, published 2009).

Test system: adults with blunt TBI, Glasgow Coma Scale score 4-12
Experiment: Phase II randomized placebo-controlled trial in acute TBI: signals of activity, 30-day outcomes (Example 3)
Type: in vivo, human
Details: for All cause mortality (ITT): intention to treat, n=77
Excerpt: In addition to monitoring subjects for signs of harm, we hoped to detect signals of activity. […] For this preliminary study, our primary outcome of interest was Glasgow Outcome Scale Extended (GOSE) 30 days post-injury. […] Thirty days following each injury event, we assessed each patient's Glasgow Outcome Score Extended (GOSE) and Disability Rating Scale (DRS). Patients who were severely impaired were classified as “not testable”-a surrogate marker for a poor outcome. Reliability codes were used to record reasons for non-administration of a particular measure, such as physical impairment (e.g., hemiparesis) cognitive impairment (e.g., could not understand instructions), or intoxication. One-year outcomes will be reported at a later date. […] Our secondary aim was to look for signs of drug activity by assessing several measures of outcome. Our a priori primary measure of outcome was the Glasgow Outcome Scale-Extended ([…] et al. (1998) Journal of Neurotrauma 15(8):587-597). […] (1987) Journal of Neurosurgery 67(6):832-840) and 5) the Disability Rating Scale (DRS) (Hall et al. […] Variables determined to be independently associated with all-cause mortality or CNS related-death, such as iGCS (dichotomized into moderate versus severe), injury severity score and Marshall CT score were incorporated in a stepwise logistic regression analyses. Because GCS often fluctuates during the first few hours after injury, additional stepwise logistic regressions were performed using dichotomized GCS 1 day post-injury.

[1] = 30 days post injury, treatment received
[2] = Index GCS = 9-12, 30 days post injury

CC(=O)[C@H]1CC[C@H]2[C@@H]3CCC4=CC(=O)CC[C@]4(C)[C@H]3CC[C@]12C [progesterone, pregn-4-ene-3,20-dione]
Dichotomized Glasgow Outcome Score - Extended: Dead to Upper Severe (30 days post injury): 70.0%
Dichotomized Glasgow Outcome Score - Extended: good or moderate recovery (30 days post injury): 30.0%
Glasgow Outcome Score - Extended: Dead (30 days post injury): 14.2%
Glasgow Outcome Score - Extended: Lower Good (30 days post injury): 4.3%
Glasgow Outcome Score - Extended: Lower Moderate (30 days post injury): 11.4%
Glasgow Outcome Score - Extended: Lower Severe (30 days post injury): 40.0%
Glasgow Outcome Score - Extended: Upper Good (30 days post injury): 4.3%
Glasgow Outcome Score - Extended: Upper Moderate (30 days post injury): 10.0%
Glasgow Outcome Score - Extended: Upper Severe (30 days post injury): 8.6%
Glasgow Outcome Score - Extended: Vegetative State (30 days post injury): 7.1%
All cause mortality (ITT) (30 days post injury): 13%
All cause mortality (ITT) (30 days post injury, listed as Progesterone): 13.0%
All cause mortality (TR) [1]: 11.8%
Neurological deaths [1]: 5.3%
Non-neurological deaths [1]: 6.6%
dichotomized GOSE versus placebo (30 days post-injury): did not significantly differ between groups
Disability Rating Score: Total DRS, mean (Index GCS = 4-8, 30 days post injury): 10.7
Disability Rating Score: Employ, mean [2]: 1.8
Disability Rating Score: Function, mean [2]: 1.5
Disability Rating Score: Total DRS, mean [2]: 5
Duration of Coma, mean (Initial GCS = 4-8): 10.1 days
Duration of Post-Traumatic Amnesia, mean (Initial GCS = 4-8): 18.6 days
Duration of Coma, mean (Initial GCS = 4-8, listed as Progesterone): 10.11 days
Duration of Coma, mean (Initial GCS = 9-12): 4.1 days
Duration of Post-Traumatic Amnesia, mean (Initial GCS = 9-12): 10.7 days
trend of mean intracranial pressure levels (first 4 days post-injury, subjects with monitors in place, not statistically significant): remained stable
Intracranial Pressure, mean (infusion day 0): 16.0 mm Hg
Intracranial Pressure, mean (infusion day 1): 17.1 mm Hg
Intracranial Pressure, mean (infusion day 2): 15.4 mm Hg
Intracranial Pressure, mean (infusion day 3): 16.0 mm Hg
Intracranial Pressure, mean (infusion day 4): 17.7 mm Hg
DRS scores versus placebo (moderately brain-injured patients, 30 days post-injury): significantly better DRS scores
Survived > 30 days (treatment received): 88.2%
